Measured values reported in patent US20260207554A1 (priority 2022, published 2026).
Counter-ions that a name gives are not always drawn.

System: adult nondependent recreational opioid users
Conditions: in vivo

Row | Structure (SMILES) | Skin and subcutaneous tissue disorders, subjects with TEAE n (%) (human) | Abdominal pain upper, subjects with TEAE n (%) (human, po) | Dizziness, subjects with TEAE n (%) (human, po) | Gastrointestinal disorders, subjects with TEAE n (%) (human, po) | Generalised tonic-clonic seizure, subjects with TEAE n (%) (human, po) | Headache, subjects with TEAE n (%) (human, po) | Hiccups, subjects with TEAE n (%) (human, po) | Nervous system disorders, subjects with TEAE n (%) (human, po) | Number of subjects with at least one TEAE, n (%) (human, po) | Somnolence, subjects with TEAE n (%) (human, po) | Tension headache, subjects with TEAE n (%) (human, po) | Toothache, subjects with TEAE n (%) (human, po) | Tremor, subjects with TEAE n (%) (human, po) | Uvulitis, subjects with TEAE n (%) (human, po) | Vertigo, subjects with TEAE n (%) (human, po) | Vomiting, subjects with TEAE n (%) (human, po) | feeling hot, incidence of subjects (human, po) [%] | hot flush, incidence of subjects (human, po) [%] | subjects who experienced seizures (po)
1 | COc1ccc2c3c1O[C@H]1C(=O)CC[C@@]4(O)[C@@H](C2)N(C)CC[C@]314.Cl [Oxycodone HCl] | (29.5%) | 0 | (9.1%) | (27.3%) | 0% | (4.5%) | (6.8%) | (22.7%) | (56.8%) | (9.1%) | 0 | 0 | 0 | 0% | 0% | (15.9%) | 2.3 | 11.4 | 
2 | COc1cccc(C2(O)CCCCC2CN(C)C)c1 (centres unmarked) [Tramadol HCl] | (25.6%) | 0 | (2.6%) | (35.9%) | (5.1%) | (7.7%) | (2.6%) |  | (66.7%) | (7.7%) | 0 | 0 | 0 | (2.6%) | (2.6%) |  | 2.5 | 12.8 | two subjects experienced seizures
